# Where two headings read alike, the source gives them in different places.
# How the values were obtained:
# [1] = In vitro screening of bacterial strains for N-methylserotonin releasing activity from orange fiber; assay type: cell-based, human gut bacterial strains; conditions: for N-methylserotonin released, MEGA Medium 2.0 72 hrs / N-methylserotonin released, TYG medium 8 hrs / N-methylserotonin released, TYG medium 24 hrs / N-methylserotonin released, TYG medium 48 hrs / N-methylserotonin released, TYG medium 72 hrs / N-methylserotonin released, Wilkins-Chalgren 72 hrs: 5 mg/ml orange fiber, normalized to 10^6 microbes, n=3
# Protocol: In vitro screening of bacterial strains for N-methylserotonin releasing activity. A given bacterial strain was grown in monoculture at 37° C. in TYG medium in an anaerobic chamber (atmosphere; 75% N2, 20% CO2 and 5% H2) to stationary phase. An aliquot was then added to 10 mL of fresh TYG medium with or without 50 mg of orange fiber that had been sterilized by gamma irradiation (30-50 KGy); the mixture was incubated under anaerobic conditions without shaking for 72 hours. A 200 μL aliquot was then removed for targeted LC-QqQ-MS measurement of N-methylserotonin levels; another aliquot was used to define the number of colony-forming units so that levels of the analyte were expressed per 10^6 cells. An identical protocol was used to compare the amount of N-methylserotonin released when two other rich media, MEGA medium 2.0 and Wilkins-Chalgren anaerobe broth (Thermo-Fisher), were used in lieu of TYG. All incubations were performed in triplicate for each condition. […]
# Bacterial strains capable of mining of N-methylserotonin from orange fiber in vitro. Given that detection of N-methylserotonin was dependent on colonization with the bacterial consortium and consumption of orange fiber, it was next investigated which community members were responsible for its appearance. Each of the 14 community members was grown in monoculture to stationary phase in TYG medium; 10^5 cells of each organism were incubated in 10 mL of a 5 mg/mL suspension of orange fiber for 8, 24, 48, 72 and 168 hours. N-methylserotonin was quantified using targeted LC-QqQ-MS. […] At this time point, Bacteroides ovatus strain TSDC 17.2 and a strain of Parabacteroides distasonis yielded similar quantities of product (29±1 and 24±2 ng N-methylserotonin/10^6 cells, respectively). In contrast, the 12 other strains yielded<1.5 ng/10^6 cells—an amount that was not appreciably higher than background levels (triplicate incubations/organism; FIG. 1C). […]
# rat hepatocytes = conditions: cited from earlier work
# [2] = Control experiments of bacterial N-methylserotonin release (heat-killed cells, conditioned media, lysates); assay type: cell-based, human gut bacterial strains
# Protocol: Experiments seeking to test the necessity of having live bacteria to extract N-methylserotonin were carried out by first incubating monocultures of B. ovatus, B. finegoldii, […] conditions to stationary phase. The stationary phase culture was then treated at 70° C. for 1 hour. […]
# Experiments using conditioned media were carried out by taking monocultures of B. ovatus, B. finegoldii, P. distasonis, […], centrifuging the culture for […]
# Experiments using bacterial lysates were carried out by bead-beating of bacterial cells, collected by centrifugation from 10 mL stationary phase TYG cultures for 4 minutes at room temperature; 500 μL of the […] To ensure sterility in these experiments, aliquots of the heat-treated cells, centrifuged conditioned media, or bacterial lysate were cultured in TYG medium for 7 days and subsequently plated on TYG-agar; the results confirmed the absence of colony forming units. Assays were performed in triplicate for each experimental condition.
# These experiments indicate that mining requires intact viable cells.
# [3] = Human studies with pea and orange fiber snack prototypes: fecal N-methylserotonin and serotonin levels; assay type: in vivo; conditions: in vivo
# Protocol: Human studies with pea and orange fiber snack prototypes. Two separate open-label, single group assignment studies were performed involving members of the Missouri Adolescent Female Twin Study (MOAFTS) cohort who were age 31-45 years at the time of enrollment. The first study with the pea fiber snack was performed between April and August 2017, while the second study with the orange fiber snack was conducted between August and December 2017. All participants provided written informed consent and the studies were approved by the Washington University Institutional Review Board (IRB ID #201611122). (ClinicalTrials.gov NCT03078283).
# The design of the two studies were identical except for the fiber snack supplement used and the number of participants in each study. Individuals who were pregnant or trying to get pregnant, had inflammatory bowel disease, gastrointestinal cancer, hepatitis, HIV, renal failure, or allergies to dairy, eggs, fish, crustacean shellfish, tree nuts, sesame seeds, peanuts, wheat, gluten, soybeans, celery, or mustard were excluded from the study. In Study 1, four twin pairs were concordant for obesity (BMI>30 kg/m2) while five pairs were discordant with one member being obese and the other non-obese (n=18 participants, […] (mean±SD); Table S8B). Study 2 involved 24 participants: 12 dizygotic twin pairs [37±2.9 years (mean±SD)], nine of whom had participated in the pea fiber study; for these nine pairs, the interval between cessation of pea fiber snack consumption and initiation of orange fiber consumption ranged from 50 to 106 days [84+26 days (mean±SD)]. Participants consumed their normal, unrestricted diet for the first two weeks of the study (pre-intervention phase). At the beginning of week three, they supplemented their diets with one 35 g fiber snack serving a day for one week, then two 35 g snack servings a day the following week, and thereafter, three 35 g snacks per day for four weeks (weeks 5-8) at breakfast, lunch and dinner. No attempt was made to adjust the diets of participants other than supplementation with the fiber snack. Snack prototypes were manufactured by Mondeldz International, Inc. (see Table S8A for their composition), which participants received in weekly shipments from the study center. The pea fiber snacks were in the form of rotary biscuits (6.7 g total fiber/35 g snack) or extruded bars (8.1 g fiber/35 g snack) with participants having the option to alternate between them. The orange fiber snacks were all in the form of extruded bars (10.2 g total fiber/35 g snack). Compliance was monitored throughout by the study coordinator through weekly phone calls. The primary outcomes for each study were the effects of the respective prototypes on gut microbial community structure and function.
# Fecal samples were collected by participants in small medically approved collection containers. Each fecal sample was frozen immediately at −20° C. and temporarily stored in dedicated freezers provided to participants at the beginning of the study. Within 12-48 hours after collection, all samples were shipped, via overnight delivery, in an insulated container containing frozen gel packs, to a biospecimen repository located in Washington University in St. Louis and overseen by one of the authors (A.C.H.). Once received, samples were stored at −80° C. until processing for LC-QqQ-MS analysis of N-methylserotonin levels and culture-independent characterization of ASV and CAZyme gene abundances.
# Measurement of fecal N-methylserotonin levels—Each fecal sample was homogenized with a porcelain mortar (4 L) and pestle while submerged in liquid nitrogen; multiple 500 mg aliquots of the pulverized frozen material were stored at −80° C. N-methylserotonin was quantified using the same protocol that was employed for mouse fecal samples (as described herein elsewhere).
# N-methylserotonin levels and microbiome CAZyme gene abundances in humans consuming fiber snack prototypes. […]
# [4] = Release of N-methylserotonin from orange fiber by commercially available glycoside hydrolase preparations; assay type: biochemical
# Protocol: Enzymatic screening of citrus & plant samples. All enzymatic assays are carried out using a total volume of 10 ml in water, 50 mg of plant fiber material tested and 700 active units of the same cellulase enzyme mixture (Sigma) as described herein. Samples were processed based on their condition, divided as follows. Citrus fibers sourced from various citrus types, described in Table S9 as “Ground,” are added directly to the enzymatic assay, while citrus fibers described as either “Granule” or “Whole” are first manually pulverized into a fine powder via mortar and pestle. The commercially available fiber source is classified as “Ground” if it was already processed into fine powder, or otherwise small enough granules in which individual pieces cannot be manually picked up via forceps. The commercially available fiber source is classified as “Granule” or “Whole” if individual fragments or pieces of the fiber is readily discernable, where “Granule” are applied to visibly uniform samples and “Whole” applied to all other samples. […]
# Identifying genes involved in release of N-methylserotonin from orange fiber. […] When orange fiber (50 mg) was subjected to repeated rounds of extraction with methanol, small quantities of N-methylserotonin were released after each round (31 ng after two rounds; 171 ng in total after 15 rounds; Table S4F). […]
# [5] = for 2-methylserotonin remaining: 200 ng spike-in
compound,measurement,setting,value
Bacteroides cellulosilyticus,"N-methylserotonin released, MEGA Medium 2.0 72 hrs",[1],1.0 ± 0.2 ng
same,"N-methylserotonin released, TYG medium 8 hrs",[1],0.3 ± 0.1 ng
same,"N-methylserotonin released, TYG medium 24 hrs",[1],0.3 ± 0.1 ng
same,"N-methylserotonin released, TYG medium 48 hrs",[1],0.6 ± 0.1 ng
same,"N-methylserotonin released, TYG medium 72 hrs",[1],0.9 ± 0.2 ng
same,"N-methylserotonin released, Wilkins-Chalgren 72 hrs",[1],1 ± 0.2 ng
CC(N)Cc1c[nH]c2ccc(O)cc12 (stereo not drawn) [alpha-methylserotonin],glycogen synthesis,rat hepatocytes,able to increase glycogen synthesis
Parabacteroides distasonis,"N-methylserotonin released, MEGA Medium 2.0 72 hrs",[1],24.8 ± 2.1 ng
same,"N-methylserotonin released, TYG medium 8 hrs",[1],0.3 ± 0.1 ng
same,"N-methylserotonin released, TYG medium 24 hrs",[1],1.0 ± 0.1 ng
same,"N-methylserotonin released, TYG medium 48 hrs",[1],7.5 ± 0.7 ng
same,"N-methylserotonin released, TYG medium 72 hrs",[1],24.3 ± 2.4 ng
same,"N-methylserotonin released, Wilkins-Chalgren 72 hrs",[1],22.1 ± 0.7 ng
same,N-methylserotonin yielded at the 72-hour time point,"[1]; TYG, 5 mg/mL orange fiber, triplicate",24±2 ng N-methylserotonin/10^6 cells
same,"N-methylserotonin levels, Cellular extract",[2]; Mega 2.0 (+orange fiber),0.3 ± 0.1 ng
same,"N-methylserotonin levels, Conditioned media",[2]; Mega 2.0 (+orange fiber),0.3 ± 0.1 ng
same,"N-methylserotonin levels, Heat inactivated",[2]; Mega 2.0 (+orange fiber),0.4 ± 0.1 ng
same,"N-methylserotonin levels, Cellular extract","[2]; Mega 2.0, no orange fiber",ND (ND (not detected)=N-methylserotonin levels below 0.02 ng)
same,"N-methylserotonin levels, Conditioned media","[2]; Mega 2.0, no orange fiber",ND (ND (not detected)=N-methylserotonin levels below 0.02 ng)
same,"N-methylserotonin levels, Heat inactivated","[2]; Mega 2.0, no orange fiber",ND (ND (not detected)=N-methylserotonin levels below 0.02 ng)
same,"N-methylserotonin levels, Cellular extract",[2]; TYG (+orange fiber),0.2 ± 0.1 ng
same,"N-methylserotonin levels, Conditioned media",[2]; TYG (+orange fiber),0.3 ± 0.1 ng
same,"N-methylserotonin levels, Heat inactivated",[2]; TYG (+orange fiber),0.3 ± 0.1 ng
same,"N-methylserotonin levels, Cellular extract","[2]; TYG, no orange fiber",ND (ND (not detected)=N-methylserotonin levels below 0.02 ng)
same,"N-methylserotonin levels, Conditioned media","[2]; TYG, no orange fiber",ND (ND (not detected)=N-methylserotonin levels below 0.02 ng)
same,"N-methylserotonin levels, Heat inactivated","[2]; TYG, no orange fiber",ND (ND (not detected)=N-methylserotonin levels below 0.02 ng)
same,"N-methylserotonin levels with heat-killed cells, lysates or conditioned medium","[2]; fresh TYG with orange fiber, 72 hours",failed to yield levels of N-methylserotonin above background
NCCc1c[nH]c2ccc(O)cc12 [serotonin],glycogen synthesis,rat hepatocytes,decreases glycogen synthesis
same,fecal serotonin levels,"[3]; female, human",7 ± 5.7 µM
same,fecal serotonin levels as % of that of N-methylserotonin,[3],0-8.6%
Cellulase,N-methylserotonin levels at 72 h,[4]; 50 mg orange fiber incubated with enzyme,2727.9 ± 25.5 ng
same,total yield of N-methylserotonin,[4]; orange fiber incubated with enzyme preparation,2728±26 ng/50 mg orange fiber
"Cc1[nH]c2ccc(O)cc2c1CCN [2-methylserotonin, reference compound]",2-methylserotonin remaining,[5]; Extraction 1,190 ng
same,2-methylserotonin remaining,[5]; Extraction 2,10 ng
same,2-methylserotonin remaining,[5]; Extraction 3,0 ng
same,2-methylserotonin remaining,[5]; Extraction 4,0 ng
same,2-methylserotonin remaining,[5]; Extraction 5,0 ng
same,2-methylserotonin remaining,[5]; Extraction 6,0 ng
same,2-methylserotonin remaining,[5]; Extraction 7,0 ng
same,2-methylserotonin remaining,[5]; Extraction 8,0 ng
same,2-methylserotonin remaining,[5]; Extraction 9,0 ng
same,2-methylserotonin remaining,[5]; Extraction 10,0 ng
same,2-methylserotonin remaining,[5]; Extraction 11,0 ng
same,2-methylserotonin remaining,[5]; Extraction 12,0 ng
same,2-methylserotonin remaining,[5]; Extraction 13,0 ng
same,2-methylserotonin remaining,[5]; Extraction 14,0 ng
same,2-methylserotonin remaining,[5]; Extraction 15,0 ng
same,2-methylserotonin removed by the first cycle of extraction,"[5]; methanol, spike-in added to orange fiber",95%

# Reference: patent US20250345370A1, “MICROBIAL LIBERATION OF N-METHYLSEROTONIN FROM ORANGE FIBER” (Washington University, priority 2022, published 2025)
